Measurements as given in patent US20250230193A1, “CYCLIC COMPOUND HAVING SELECTIVE KRAS INHIBITORY EFFECT ON HRAS AND NRAS” (CHUGAI SEIYAKU KABUSHIKI KAISHA, priority 2022, published 2025).
*1 amine or outer side, *2 acyl side, *3 side chain or, on linkers, in order; H or OH if unused. Where a SMILES comes first, the peptide text is derived from it. Bridges are numbered along the chain shown (N, C = ends). [ ]: non-standard residue; d: D form. The star is where a group is joined. hPhe(3-Cl-4-CF3) = N[C@@H](CCc1ccc(C(F)(F)F)c(Cl)c1)C(=O)O; X47 = O=C([C@H](Cc1ccc(C(F)(F)F)cc1)N(CCCF)[*:1])[*:2]; X20 = CCCN([C@@H](CC1CCC(F)(F)CC1)C(=O)[*:2])[*:1]; NMeGly(cPent) = CN[C@H](C(=O)O)C1CCCC1; NMeD = CN[C@@H](CC(=O)O)C(=O)O; NMeL = CN[C@@H](CC(C)C)C(=O)O; Morpholide = C1CN(*)CCO1; NMeA = CN[C@@H](C)C(=O)O; Ac5c = NC1(C(=O)O)CCCC1; Aze = O=C(O)[C@@H]1CCN1; Sar = CNCC(=O)O

Key:
[1] = biological target: GDP-bound NRAS wild-type protein (Homo sapiens, UniProt P01111); experiment: Binding to NRAS by surface plasmon resonance (SPR), Single Cycle Kinetics; details: KD ratio NRAS/KRAS, SPR
GDP-bound NRAS wild-type protein, sequence (P01111 whole entry): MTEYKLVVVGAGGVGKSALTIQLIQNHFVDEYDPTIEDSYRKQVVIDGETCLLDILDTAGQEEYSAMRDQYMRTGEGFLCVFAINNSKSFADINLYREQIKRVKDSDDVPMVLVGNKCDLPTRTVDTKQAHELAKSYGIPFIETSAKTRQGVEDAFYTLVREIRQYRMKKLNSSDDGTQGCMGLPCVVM

[2] = biological target: GDP-bound HRAS wild-type protein (Homo sapiens, UniProt P01112); experiment: Binding to HRAS by surface plasmon resonance (SPR), Single Cycle Kinetics; details: KD ratio HRAS/KRAS, SPR
GDP-bound HRAS wild-type protein, sequence (P01112 whole entry): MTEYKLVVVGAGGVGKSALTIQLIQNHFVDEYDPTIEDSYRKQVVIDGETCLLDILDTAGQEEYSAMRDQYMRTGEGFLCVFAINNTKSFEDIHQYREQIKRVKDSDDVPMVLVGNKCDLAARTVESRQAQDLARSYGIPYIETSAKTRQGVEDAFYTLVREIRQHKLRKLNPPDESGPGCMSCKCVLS

Structure (SMILES) | NRAS/KRAS (ratio of KD value with respect to GDP-bound NRAS wild-type protein to KD value with respect to KRAS) [1] | HRAS/KRAS (ratio of KD value with respect to GDP-bound HRAS wild-type protein to KD value with respect to KRAS) [2]
CC[C@H](C)[C@@H]1NC(=O)[C@H](CC(C)C)N(C)C(=O)C[C@@H](C(=O)N2CCOCC2)N(C)C(=O)[C@H](C2CCCC2)N(C)C(=O)C2(CCCC2)NC(=O)[C@@H]2CCCN2C(=O)[C@H](CCc2ccc(C(F)(F)F)c(Cl)c2)NC(=O)CN(C)C(=O)[C@H](Cc2ccc(C(F)(F)F)cc2)N(CCCF)C(=O)[C@@H]2CCN2C(=O)[C@H](C)N(C)C1=O [PP0525] ([NMeL]I[NMeA][Aze][X47][Sar][hPhe(3-Cl-4-CF3)]P[Ac5c][NMeGly(cPent)][NMeD]-Morpholide; lactam N-11) | C (A compound having a KD ratio of 0.1 or more and less than 3 is denoted as C) | B (a compound having 3 or more and less than 10 is denoted as B)
CCCN1C(=O)CN(C)C(=O)CN(C)C(=O)[C@H]([C@@H](C)CC)NC(=O)[C@H](CC(C)C)N(C)C(=O)C[C@@H](C(=O)N2CCOCC2)N(C)C(=O)[C@H](C2CCCC2)N(C)C(=O)C2(CCCC2)NC(=O)[C@@H]2CCCN2C(=O)[C@H](CCc2ccc(C(F)(F)F)c(Cl)c2)NC(=O)CN(C)C(=O)[C@@H]1CC1CCC(F)(F)CC1 [PP0526] ([NMeL]I[Sar][Sar][X20][Sar][hPhe(3-Cl-4-CF3)]P[Ac5c][NMeGly(cPent)][NMeD]-Morpholide; lactam N-11) | B (a compound having 3 or more and less than 10 is denoted as B) | C (A compound having a KD ratio of 0.1 or more and less than 3 is denoted as C)
CCCN1C(=O)[C@@H]2CCN2C(=O)[C@H](C)N(C)C(=O)[C@H]([C@@H](C)CC)NC(=O)[C@H](CC(C)C)N(C)C(=O)C[C@@H](C(=O)N2CCOCC2)N(C)C(=O)[C@H](C2CCCC2)N(C)C(=O)C2(CCCC2)NC(=O)[C@@H]2CCCN2C(=O)[C@H](CCc2ccc(C(F)(F)F)c(Cl)c2)NC(=O)CN(C)C(=O)[C@@H]1CC1CCC(F)(F)CC1 [PP0527] ([NMeL]I[NMeA][Aze][X20][Sar][hPhe(3-Cl-4-CF3)]P[Ac5c][NMeGly(cPent)][NMeD]-Morpholide; lactam N-11) | C (A compound having a KD ratio of 0.1 or more and less than 3 is denoted as C) | C (A compound having a KD ratio of 0.1 or more and less than 3 is denoted as C)
CC[C@H](C)[C@@H]1NC(=O)[C@H](CC(C)C)N(C)C(=O)C[C@@H](C(=O)N2CCOCC2)N(C)C(=O)[C@H](C2CCCC2)N(C)C(=O)C2(CCCC2)NC(=O)[C@@H]2CCCN2C(=O)[C@H](CCc2ccc(C(F)(F)F)c(Cl)c2)NC(=O)CN(C)C(=O)[C@H](Cc2ccccc2)N2CC=CC[C@@H](C2=O)N(C)C(=O)CN(C)C1=O [PP0528] | C (A compound having a KD ratio of 0.1 or more and less than 3 is denoted as C) | C (A compound having a KD ratio of 0.1 or more and less than 3 is denoted as C)
CC[C@H](C)[C@@H]1NC(=O)[C@H](CC(C)C)N(C)C(=O)C[C@@H](C(=O)N2CCOCC2)N(C)C(=O)[C@H](C2CCCC2)N(C)C(=O)C2(CCCC2)NC(=O)[C@@H]2CCCN2C(=O)[C@H](CCc2ccc(C(F)(F)F)c(Cl)c2)NC(=O)CN(C)C(=O)[C@H](Cc2ccccc2)N2CCCC[C@@H](C2=O)N(C)C(=O)CN(C)C1=O [PP0529] | C (A compound having a KD ratio of 0.1 or more and less than 3 is denoted as C) | B (a compound having 3 or more and less than 10 is denoted as B)
CC[C@H](C)[C@@H]1NC(=O)[C@H](CC(C)C)N(C)C(=O)C[C@@H](C(=O)N2CCOCC2)N(C)C(=O)[C@H](C2CCCC2)N(C)C(=O)C2(CCCC2)NC(=O)[C@@H]2CCCN2C(=O)[C@H](CCc2ccc(C(F)(F)F)c(Cl)c2)NC(=O)CN(C)C(=O)[C@H](Cc2ccc(F)cc2)N2CCCC[C@@H](C2=O)N(C)C(=O)CN(C)C1=O [PP0530] | C (A compound having a KD ratio of 0.1 or more and less than 3 is denoted as C) | B (a compound having 3 or more and less than 10 is denoted as B)
CC[C@H](C)[C@@H]1NC(=O)[C@H](CC(C)C)N(C)C(=O)C[C@@H](C(=O)N2CCOCC2)N(C)C(=O)[C@H](C2CCCC2)N(C)C(=O)C2(CCCC2)NC(=O)[C@@H]2CCCN2C(=O)[C@H](CCc2ccc(C(F)(F)F)c(Cl)c2)NC(=O)CN(C)C(=O)[C@H](Cc2ccc(Cl)cc2)N2CCCC[C@@H](C2=O)N(C)C(=O)CN(C)C1=O [PP0532] | C (A compound having a KD ratio of 0.1 or more and less than 3 is denoted as C) | B (a compound having 3 or more and less than 10 is denoted as B)
CC[C@H](C)[C@@H]1NC(=O)[C@H](CC(C)C)N(C)C(=O)C[C@@H](C(=O)N2CCOCC2)N(C)C(=O)[C@H](C2CCCC2)N(C)C(=O)C2(CCCC2)NC(=O)[C@@H]2CCCN2C(=O)[C@H](CCc2ccc(C(F)(F)F)c(Cl)c2)NC(=O)CN(C)C(=O)[C@H](Cc2ccc(Cl)cc2)N2CC=CC[C@@H](C2=O)N(C)C(=O)CN(C)C1=O [PP0533] | C (A compound having a KD ratio of 0.1 or more and less than 3 is denoted as C) | C (A compound having a KD ratio of 0.1 or more and less than 3 is denoted as C)
CC[C@H](C)[C@@H]1NC(=O)[C@H](CC(C)C)N(C)C(=O)C[C@@H](C(=O)N2CCOCC2)N(C)C(=O)[C@H](C2CCCC2)N(C)C(=O)C2(CCCC2)NC(=O)[C@@H]2CCCN2C(=O)[C@H](CCc2ccc(C(F)(F)F)c(Cl)c2)NC(=O)CN(C)C(=O)[C@H](Cc2ccc(OC)cc2)N2CCCC[C@@H](C2=O)N(C)C(=O)CN(C)C1=O [PP0534] | B (a compound having 3 or more and less than 10 is denoted as B) | B (a compound having 3 or more and less than 10 is denoted as B)
CC[C@H](C)[C@@H]1NC(=O)[C@H](CC(C)C)N(C)C(=O)C[C@@H](C(=O)N2CCOCC2)N(C)C(=O)[C@H](C2CCCC2)N(C)C(=O)C2(CCCC2)NC(=O)[C@@H]2CCCN2C(=O)[C@H](CCc2ccc(C(F)(F)F)c(Cl)c2)NC(=O)CN(C)C(=O)[C@H](Cc2ccc(OC)cc2)N2CC=CC[C@@H](C2=O)N(C)C(=O)CN(C)C1=O [PP0535] | C (A compound having a KD ratio of 0.1 or more and less than 3 is denoted as C) | B (a compound having 3 or more and less than 10 is denoted as B)
CC[C@H](C)[C@@H]1NC(=O)[C@H](CC(C)C)N(C)C(=O)C[C@@H](C(=O)N2CCOCC2)N(C)C(=O)[C@H](C2CCCC2)N(C)C(=O)C2(CCCC2)NC(=O)[C@@H]2CCCN2C(=O)[C@H](CCc2ccc(C(F)(F)F)c(Cl)c2)NC(=O)CN(C)C(=O)[C@H](Cc2ccc(OC(F)(F)F)cc2)N2CCCC[C@@H](C2=O)N(C)C(=O)CN(C)C1=O [PP0536] | B (a compound having 3 or more and less than 10 is denoted as B) | B (a compound having 3 or more and less than 10 is denoted as B)
CC[C@H](C)[C@@H]1NC(=O)[C@H](CC(C)C)N(C)C(=O)C[C@@H](C(=O)N2CCOCC2)N(C)C(=O)[C@H](C2CCCC2)N(C)C(=O)C2(CCCC2)NC(=O)[C@@H]2CCCN2C(=O)[C@H](CCc2ccc(C(F)(F)F)c(Cl)c2)NC(=O)CN(C)C(=O)[C@H](Cc2ccc(OC(F)(F)F)cc2)N2CC=CC[C@@H](C2=O)N(C)C(=O)CN(C)C1=O [PP0537] | C (A compound having a KD ratio of 0.1 or more and less than 3 is denoted as C) | C (A compound having a KD ratio of 0.1 or more and less than 3 is denoted as C)
CC[C@H](C)[C@@H]1NC(=O)[C@H](CC(C)C)N(C)C(=O)C[C@@H](C(=O)N2CCOCC2)N(C)C(=O)[C@H](C2CCCC2)N(CC)C(=O)C2(CCCC2)NC(=O)[C@@H]2CCCN2C(=O)[C@H](CCc2cc(F)c(C(F)(F)F)c(F)c2)NC(=O)CN(C)C(=O)[C@H](Cc2ccc(C(F)(F)F)cc2)N2CCCC[C@@H](C2=O)N(C)C(=O)CN(C)C1=O [PP0538] | B (a compound having 3 or more and less than 10 is denoted as B) | B (a compound having 3 or more and less than 10 is denoted as B)
CC[C@H](C)[C@@H]1NC(=O)[C@H](CC(C)C)N(C)C(=O)C[C@@H](C(=O)N2CCOCC2)N(CC)C(=O)[C@H](C2CCCC2)N(C)C(=O)C2(CCCC2)NC(=O)[C@@H]2CCCN2C(=O)[C@H](CCc2cc(F)c(C(F)(F)F)c(F)c2)NC(=O)CN(C)C(=O)[C@H](Cc2ccc(C(F)(F)F)cc2)N2CCCC[C@@H](C2=O)N(C)C(=O)CN(C)C1=O [PP0539] | B (a compound having 3 or more and less than 10 is denoted as B) | B (a compound having 3 or more and less than 10 is denoted as B)
CC[C@H](C)[C@@H]1NC(=O)[C@H](CC(C)C)N(C)C(=O)C[C@@H](C(=O)N2CCOCC2)N(C)C(=O)[C@H](C2CCCC2)NC(=O)C2(CCCC2)NC(=O)[C@@H]2CCCN2C(=O)[C@H](CCc2cc(F)c(C(F)(F)F)c(F)c2)NC(=O)CN(C)C(=O)[C@H](Cc2ccc(C(F)(F)F)cc2)N2CCCC[C@@H](C2=O)N(C)C(=O)CN(C)C1=O [PP0540] | B (a compound having 3 or more and less than 10 is denoted as B) | B (a compound having 3 or more and less than 10 is denoted as B)
